A word on the inhibition: it is the relative decrease from the control value, in per cent.

This test concerns Signal transducer and activator of transcription 1 (STAT1), rat. Put plainly: reduction of cytokine-raised STAT1 and pSTAT1, late-stage follow-up, mechanism study, cell-based, rat, cytokine stimulus, time course (AID 652132). The settings on record: INS-1E cells, cytokine-induced STAT1/pSTAT1 western blot, at 10 µM, stronger effect = higher value. In general terms: In western blotting, separated proteins are transferred to a membrane and probed.

`C[C@@H]1CN([C@@H](C)CO)C(=O)c2cccc(NC(=O)Nc3cccc4ccccc34)c2O[C@H]1CN(C)S(=O)(=O)c1ccc2c(c1)OCCO2`: the p-STAT1 inhibition, 24 h is 65%. The inhibition (measured here: p-STAT1 inhibition 8 h) is 97%. The inhibition (measured here: p-STAT1 inhibition 12 h) is 80%. Besides, for the setting “measured here: total STAT1 inhibition 8 h”, the inhibition turned out to be 69%. Further, the inhibition (measured here: total STAT1 inhibition 12 h) was 53%. Also, under “measured here: total STAT1 inhibition 24 h”, the inhibition was 43%.

The record behind these values is PubChem BioAssay AID652132 (Broad Institute, 2013).
